Data as given in ChEMBL document CHEMBL1148904, “Iridoid glycosides from Eremostachys glabra” (J Nat Prod, 2004).

Tested on: Radical scavenging activity
Assay: Antioxidant activity assessed as DPPH radical scavenging activity after 30 mins
Format: functional

| Structure (SMILES) | RC50 |
| --- | --- |
| COC(=O)C1=CO[C@@H](O[C@@H]2O[C@H](CO)[C@@H](O)[C@H](O)[C@H]2O)[C@H]2[C@H](C)C[C@@H](O)[C@@]12O | 4.9 ×10⁻¹ mg/ml |
| O=c1c(O)c(-c2ccc(O)c(O)c2)oc2cc(O)cc(O)c12 | 2.88 ×10⁻⁵ mg/ml |
| COC(=O)C1=CO[C@@H](O[C@@H]2O[C@H](CO)[C@@H](O)[C@H](O)[C@H]2O)[C@@H]2[C@@H]1[C@@H](O)C[C@]2(C)OC(C)=O | 1.1 ×10⁻¹ mg/ml |
| COC(=O)C1=CO[C@@H](O[C@@H]2O[C@H](CO)[C@@H](O)[C@H](O)[C@H]2O)[C@H]2C(C)=C[C@@H](O)[C@@]12O | 4.1 ×10⁻¹ mg/ml |
